# Measured values reported in patent US10723741B1, “DNA polymerase IIIC inhibitors and use thereof” (Acurx Pharmaceuticals, LLC, priority 2018, dated 2020).
# Tests used:
# Assay type in all cases: cell-based
# [1] = test system: Staphylococcus aureus NRS384 (MRSA); assay: Broth microdilution MIC, S. aureus NRS384 (MRSA); set-up: MIC NRS 384 (MRSA): unit not given here; settings: broth microdilution, 37° C., 20 hours; for MIC: Staphylococcus aureus, read-out: MIC NRS 384 (MRSA)
# Method in brief: (§1)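 Two-fold dilutions from 64 to 0.0625 μg/ml final, 1% DMSO, were inoculated at ~5.0×10^5 cfu/ml in the strain's test medium and kept 20 h at 37 °C in ambient atmosphere. Colonies were grown on MHA, with S. pneumoniae on blood agar under 5% CO2.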
# [2] = test system: Staphylococcus aureus ATCC 29213 (MSSA); assay: Broth microdilution MIC, S. aureus ATCC 29213 (MSSA); settings: broth microdilution, 37° C., 20 hours, read-out: MIC S. aureus ATCC 29213 (MSSA)
# Method in brief: as §1
# [3] = test system: Enterococcus faecalis ATCC 29212; assay: Broth microdilution MIC, E. faecalis ATCC 29212; settings: ATCC29212, broth microdilution, 37° C., 20 hours, read-out: MIC E. faecalis ATCC 29212
# Method in brief: as §1
# [4] = test system: Enterococcus faecium ATCC 700221 (VRE); assay: Broth microdilution MIC, E. faecium ATCC 700221 (VRE); set-up: MIC E. faecium ATCC 700221 (VRE): unit: ug/mL; settings: broth microdilution, 37° C., 20 hours; for MIC: Enterococcus faecium, read-out: MIC E. faecium ATCC 700221 (VRE)
# Method in brief: as §1
# [5] = test system: Streptococcus pneumoniae ATCC 49619; assay: Broth microdilution MIC, S. pneumoniae ATCC 49619; settings: ATCC49619, broth microdilution, 37° C., 20 hours, read-out: MIC S. pneumoniae ATCC 49619
# Method in brief: as §1
# [6] = test system: Bacillus subtilis ATCC 6633; assay: Broth microdilution MIC, B. subtilis ATCC 6633; settings: ATCC6633, broth microdilution, 37° C., 20 hours, read-out: MIC B. subtilis ATCC 6633
# Method in brief: as §1
# [7] = test system: Escherichia coli ATCC 25922; assay: Broth microdilution MIC, E. coli ATCC 25922 (MHIIB w & w/o 4 mM EDTA); settings: broth microdilution, 37° C., 20 hours; for MIC: Escherichia coli, ATCC25922, without EDTA, read-out: MIC E. coli ATCC 25922; for MIC E. coli ATCC 25922 + 4 mM EDTA: with 4 mM EDTA
# Method in brief: as §1
structure (smiles),measurement,setting,value
"CC(C)OC(=O)CCCn1ncc2nc(NCc3ccc(Cl)c(Cl)c3)[nH]c(=O)c21 [Compound 206, isopropyl 4-(5-((3,4-dichlorobenzyl)amino)-7-oxo-6,7-dihydro-1H-pyrazolo[4,3-d]pyrimidin-1-yl)butanoate]",MIC,[1],> 64 µg/mL
same,MIC,[2],> 64 µg/mL
same,MIC,[3],> 64 µg/mL
same,MIC,[4],4 µg/mL
same,MIC,[5],16 µg/mL
same,MIC,[6],1 µg/mL
same,MIC,[7],> 64 µg/mL
same,MIC E. coli ATCC 25922 + 4 mM EDTA,[7],>64 µg/mL
"O=c1[nH]c(NCc2ccc(Cl)c(Cl)c2)nc2cnn(Cc3cocn3)c12 [Compound 92, 5-((3,4-Dichlorobenzyl)amino)-1-(oxazol-4-ylmethyl)-1H-pyrazolo[4,3-d]pyrimidin-7(6H)-one]",MIC,[1],4 µg/mL
same,MIC,[2],4 µg/mL
same,MIC,[3],4 µg/mL
same,MIC,[4],2 µg/mL
same,MIC,[5],4 µg/mL
same,MIC,[6],2 µg/mL
same,MIC,[7],> 64 µg/mL
same,MIC E. coli ATCC 25922 + 4 mM EDTA,[7],8 µg/mL
"O=c1[nH]c(NCc2ccc(Cl)c(Cl)c2)nc2cnn(CCCOC3CC(O)C3)c12 (stereo not drawn) [Compound 179, 5-((3,4-dichlorobenzyl)amino)-1-(3-(3-hydroxycyclobutoxy)propyl)-1H-pyrazolo[4,3-d]pyrimidin-7(6H)-one]",MIC,[1],4 µg/mL
same,MIC,[2],8 µg/mL
same,MIC,[3],4 µg/mL
same,MIC,[4],2 µg/mL
same,MIC,[5],4 µg/mL
same,MIC,[6],1 µg/mL
same,MIC,[7],> 64 µg/mL
same,MIC E. coli ATCC 25922 + 4 mM EDTA,[7],>64 µg/mL
"Cn1ncc2nc(Nc3ccccc3)[nH]c(=O)c21 [Compound 10, 1-Methyl-5-(phenylamino)-1H-pyrazolo[4,3-d]pyrimidin-7(6H)-one]",MIC,[1],> 64 µg/mL
same,MIC,[2],> 64 µg/mL
same,MIC,[3],> 64 µg/mL
same,MIC,[4],> 64 µg/mL
same,MIC,[5],> 64 µg/mL
same,MIC,[6],> 64 µg/mL
same,MIC,[7],> 64 µg/mL
same,MIC E. coli ATCC 25922 + 4 mM EDTA,[7],>64 µg/mL
"CN(CCn1ncc2nc(NCc3ccc(Cl)c(Cl)c3)[nH]c(=O)c21)C(=O)c1cnoc1 [Compound 82, N-(2-(5-((3,4-dichlorobenzyl)amino)-7-oxo-6,7-dihydro-1H-pyrazolo[4,3-d]pyrimidin-1-yl)ethyl)-N-methylisoxazole-4-carboxamide]",MIC,[1],16 µg/mL
same,MIC,[2],16 µg/mL
same,MIC,[3],8 µg/mL
same,MIC,[4],4 µg/mL
same,MIC,[5],8 µg/mL
same,MIC,[6],8 µg/mL
same,MIC,[7],> 64 µg/mL
same,MIC E. coli ATCC 25922 + 4 mM EDTA,[7],>64 µg/mL
"CN(C)CC1CN(CCn2ncc3nc(NCc4ccc(Cl)c(Cl)c4)[nH]c(=O)c32)CCO1.Cl.Cl (stereo not drawn) [Compound 73, 5-((3,4-Dichlorobenzyl)amino)-1-(2-(2-((dimethylamino)methyl)morpholino)ethyl)-1H-pyrazolo[4,3-d]pyrimidin-7(6H)-one dihydrochloride]",MIC,[1],16 µg/mL
same,MIC,[2],16 µg/mL
same,MIC,[3],16 µg/mL
same,MIC,[4],8 µg/mL
same,MIC,[5],8 µg/mL
same,MIC,[6],4 µg/mL
same,MIC,[7],> 64 µg/mL
same,MIC E. coli ATCC 25922 + 4 mM EDTA,[7],>64 µg/mL
"CC(C)(C)OC(=O)N1CCC(n2ncc3nc(NCc4ccc(Cl)c(Cl)c4)[nH]c(=O)c32)C1 (stereo not drawn) [Compound 98, tert-Butyl 3-(5-((3,4-dichlorobenzyl)amino)-7-oxo-6,7-dihydro-1H-pyrazolo[4,3-d]pyrimidin-1-yl)pyrrolidine-1-carboxylate]",MIC,[1],8 µg/mL
same,MIC,[2],8 µg/mL
same,MIC,[3],> 64 µg/mL
same,MIC,[4],4 µg/mL
same,MIC,[5],16 µg/mL
same,MIC,[6],2 µg/mL
same,MIC,[7],> 64 µg/mL
same,MIC E. coli ATCC 25922 + 4 mM EDTA,[7],>64 µg/mL
"COCCN1CCC(n2ncc3nc(NCc4ccc(Cl)c(Cl)c4)[nH]c(=O)c32)CC1.Cl [Compound 157, 5-((3,4-dichlorobenzyl)amino)-1-(1-(2-methoxyethyl)piperidin-4-yl)-1H-pyrazolo[4,3-d]pyrimidin-7(6H)-one hydrochloride]",MIC,[1],4 µg/mL
same,MIC,[2],8 µg/mL
same,MIC,[3],8 µg/mL
same,MIC,[4],2 µg/mL
same,MIC,[5],4 µg/mL
same,MIC,[6],2 µg/mL
same,MIC,[7],> 64 µg/mL
same,MIC E. coli ATCC 25922 + 4 mM EDTA,[7],64 µg/mL
"Cl.O=C(c1cccnc1)N1CCCC(Cn2ncc3nc(NCc4ccc(Cl)c(Cl)c4)[nH]c(=O)c32)C1 (stereo not drawn) [Compound 280, 5-((3,4-dichlorobenzyl)amino)-1-((1-nicotinoylpiperidin-3-yl)methyl)-1H-pyrazolo[4,3-d]pyrimidin-7(6H)-one hydrochloride]",MIC,[1],16 µg/mL
same,MIC,[2],16 µg/mL
same,MIC,[3],16 µg/mL
same,MIC,[4],8 µg/mL
same,MIC,[5],8 µg/mL
same,MIC,[6],16 µg/mL
same,MIC,[7],> 64 µg/mL
same,MIC E. coli ATCC 25922 + 4 mM EDTA,[7],>64 µg/mL
"Cn1nc(C#N)c2nc(NCc3ccc(Cl)c(Cl)c3)[nH]c(=O)c21 [Compound 45, 5-((3,4-dichlorobenzyl)amino)-1-methyl-7-oxo-6,7-dihydro-1H-pyrazolo[4,3-d]pyrimidine-3-carbonitrile]",MIC NRS 384 (MRSA),[1],4/4
same,MIC,[2],4 µg/mL
same,MIC,[3],4 µg/mL
same,MIC E. faecium ATCC 700221 (VRE),[4],2/2
same,MIC,[5],16 µg/mL
same,MIC,[6],2 µg/mL
same,MIC,[7],> 64 µg/mL
same,MIC E. coli ATCC 25922 + 4 mM EDTA,[7],64 µg/mL
"CC(C)n1ncc2nc(NCc3ccc(Cl)c(Cl)c3)[nH]c(=O)c21 [Compound 130, 5-((3,4-Dichlorobenzyl)amino)-1-isopropyl-1H-pyrazolo[4,3-d]pyrimidin-7(6H)-one]",MIC,[1],2 µg/mL
same,MIC,[2],2 µg/mL
same,MIC,[3],4 µg/mL
same,MIC,[4],2 µg/mL
same,MIC,[5],4 µg/mL
same,MIC,[6],1 µg/mL
same,MIC,[7],> 64 µg/mL
same,MIC E. coli ATCC 25922 + 4 mM EDTA,[7],16 µg/mL
"Cl.NCCOCCn1ncc2nc(NCc3ccc(Cl)c(Cl)c3)[nH]c(=O)c21 [Compound 99, 1-(2-(2-aminoethoxy)ethyl)-5-((3,4-dichlorobenzyl)amino)-1H-pyrazolo[4,3-d]pyrimidin-7(6H)-one hydrochloride]",MIC,[1],64 µg/mL
same,MIC,[2],64 µg/mL
same,MIC,[3],32 µg/mL
same,MIC,[4],32 µg/mL
same,MIC,[5],4 µg/mL
same,MIC,[6],2 µg/mL
same,MIC,[7],> 64 µg/mL
same,MIC E. coli ATCC 25922 + 4 mM EDTA,[7],64 µg/mL
"CS(=O)(=O)CCOCCn1ncc2nc(NCc3ccc(Cl)c(Cl)c3)[nH]c(=O)c21 [Compound 220, 5-((3,4-dichlorobenzyl)amino)-1-(2-(2-(methylsulfonyl)ethoxy)ethyl)-1H-pyrazolo[4,3-d]pyrimidin-7(6H)-one]",MIC,[1],16 µg/mL
same,MIC,[2],8 µg/mL
same,MIC,[3],8 µg/mL
same,MIC,[4],2 µg/mL
same,MIC,[5],2 µg/mL
same,MIC,[6],4 µg/mL
same,MIC,[7],> 64 µg/mL
same,MIC E. coli ATCC 25922 + 4 mM EDTA,[7],>64 µg/mL
"O=c1[nH]c(NCc2ccc(F)c(F)c2)nc2cnn(CC3CCO3)c12 (stereo not drawn) [Compound 125, 5-((3,4-Difluorobenzyl)amino)-1-(oxetan-2-ylmethyl)-1H-pyrazolo[4,3-d]pyrimidin-7(6H)-one]",MIC,[1],32 µg/mL
same,MIC,[2],32 µg/mL
same,MIC,[3],32 µg/mL
same,MIC,[4],32 µg/mL
same,MIC,[5],8 µg/mL
same,MIC,[6],32 µg/mL
same,MIC,[7],> 64 µg/mL
same,MIC E. coli ATCC 25922 + 4 mM EDTA,[7],>64 µg/mL
"COC(=O)C(C)n1cc2nc(NCc3ccc(Cl)c(Cl)c3)[nH]c(=O)c2n1 (stereo not drawn) [Compound 224, Methyl 2-(5-((3,4-dichlorobenzyl)amino)-7-oxo-6,7-dihydro-2H-pyrazolo[4,3-d]pyrimidin-2-yl)propanoate]",MIC,[1],> 64 µg/mL
same,MIC,[2],> 64 µg/mL
same,MIC,[3],> 64 µg/mL
same,MIC,[4],> 64 µg/mL
same,MIC,[5],32 µg/mL
same,MIC,[6],> 64 µg/mL
same,MIC,[7],> 64 µg/mL
same,MIC E. coli ATCC 25922 + 4 mM EDTA,[7],>64 µg/mL
